In US20260146035A1, “FUSED BICYCLIC COMPOUNDS AND THEIR USE AS MER AND AXL INHIBITORS” (DONG-A ST CO., LTD., priority 2022, published 2026):

Assays:
human TYRO3 (455-end) = target: T1, human TYRO3 (455-end) (Homo sapiens, UniProt Q06418); test: HTRF kinase activity biochemical assay, TYRO3; details: 10 μM ATP, 30 minutes pre-incubation; read-out: HTRF TYRO IC50
T1 construct: TYRO3 (455-end); purchased SignalChem, Canada
T1 sequence (Q06418 455-890 limits assumed): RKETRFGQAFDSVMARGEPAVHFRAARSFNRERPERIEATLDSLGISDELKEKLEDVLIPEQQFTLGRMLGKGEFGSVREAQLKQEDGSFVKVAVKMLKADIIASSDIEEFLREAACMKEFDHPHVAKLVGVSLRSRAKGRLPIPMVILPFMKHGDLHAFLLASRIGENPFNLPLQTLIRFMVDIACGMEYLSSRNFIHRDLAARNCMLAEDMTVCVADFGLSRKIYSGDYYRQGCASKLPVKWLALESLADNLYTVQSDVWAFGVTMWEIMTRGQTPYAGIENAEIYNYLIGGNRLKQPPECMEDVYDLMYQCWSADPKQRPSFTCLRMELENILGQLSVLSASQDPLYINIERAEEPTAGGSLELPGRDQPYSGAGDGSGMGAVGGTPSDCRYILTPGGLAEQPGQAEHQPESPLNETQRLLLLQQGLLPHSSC

human AXL (473-end) = target: T2, human AXL (473-end) (Homo sapiens, UniProt P30530); test: HTRF kinase activity biochemical assay, AXL; details: 10 μM ATP, 30 minutes pre-incubation
T2 construct: human AXL (473-end); purchased SignalChem, Canada
T2 sequence (P30530 473-894 limits assumed): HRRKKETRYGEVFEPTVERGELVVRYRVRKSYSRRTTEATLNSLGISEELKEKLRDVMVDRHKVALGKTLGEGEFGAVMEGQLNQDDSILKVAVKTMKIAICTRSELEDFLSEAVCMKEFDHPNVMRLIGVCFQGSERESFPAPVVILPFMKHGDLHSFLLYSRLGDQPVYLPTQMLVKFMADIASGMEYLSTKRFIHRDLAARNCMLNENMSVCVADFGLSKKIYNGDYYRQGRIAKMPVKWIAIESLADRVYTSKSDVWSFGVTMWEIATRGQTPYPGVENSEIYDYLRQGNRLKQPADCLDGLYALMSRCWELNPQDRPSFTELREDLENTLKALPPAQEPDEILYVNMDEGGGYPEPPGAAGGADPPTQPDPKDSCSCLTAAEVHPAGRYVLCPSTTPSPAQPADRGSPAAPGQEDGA

human MER (528-end) = target: T3, human MER (528-end) (Homo sapiens, UniProt Q12866); test: HTRF kinase activity biochemical assay, MER; details: 10 μM ATP, 30 minutes pre-incubation; read-out: HTRF MERTK IC50
T3 construct: human MER (528-end); purchased Camnabio, Japan
T3 sequence (Q12866 528-999 limits assumed): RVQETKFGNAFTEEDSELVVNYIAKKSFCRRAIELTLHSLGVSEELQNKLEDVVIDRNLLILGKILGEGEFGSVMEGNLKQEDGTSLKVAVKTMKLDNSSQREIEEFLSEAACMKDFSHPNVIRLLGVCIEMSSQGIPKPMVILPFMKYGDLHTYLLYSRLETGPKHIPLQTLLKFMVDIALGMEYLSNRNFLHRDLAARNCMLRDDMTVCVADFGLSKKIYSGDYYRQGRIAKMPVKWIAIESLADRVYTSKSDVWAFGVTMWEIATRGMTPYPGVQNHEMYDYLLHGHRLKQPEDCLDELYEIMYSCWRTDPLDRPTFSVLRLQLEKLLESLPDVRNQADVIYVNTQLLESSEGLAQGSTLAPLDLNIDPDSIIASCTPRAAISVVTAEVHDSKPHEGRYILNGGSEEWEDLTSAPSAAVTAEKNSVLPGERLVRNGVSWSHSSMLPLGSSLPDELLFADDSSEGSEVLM

| Compound | IC50 (human TYRO3 (455-end)) | IC50 (human AXL (473-end)) | IC50 (human MER (528-end)) |
| --- | --- | --- | --- |
| Cn1cc(-c2cnc(N)c(C(=O)N[C@H]3CCC[C@@H]3OCc3ccc(-c4ccc5c(N6CCN(CCO)CC6)coc5c4)cc3)c2)cn1 [Example 95, 2-amino-N-{(1S,2S)-2-[(4-{3-[4-(2-hydroxyethyl)piperazin-1-yl]-1-benzofuran-6-yl}phenyl)methoxy]cyclopentyl}-5-(1-methyl-1H-pyrazol-4-yl)pyridine-3-carboxamide] | > 1000 nM | 100 to 1000 nM | 10 to 100 nM |
| Cn1cc(-c2cnc(N)c(C(=O)N[C@H]3CCC[C@@H]3OCc3ccc(-c4ccc5c(c4)C(C)(C)C[C@H]5N4CCN(CCO)CC4)cc3)c2)cn1 [Example 96, 2-amino-N-{(1S,2S)-2-[(4-{(1R)-1-[4-(2-hydroxyethyl)piperazin-1-yl]-3,3-dimethyl-2,3-dihydro-1H-inden-5-yl}phenyl)methoxy]cyclopentyl}-5-(1-methyl-1H-pyrazol-4-yl)pyridine-3-carboxamide] | > 1000 nM | 10 to 100 nM | 10 to 100 nM |
| CC1(C)C[C@@H](N2CCN(CCO)CC2)c2ccc(-c3ccc(CO[C@H]4CCC[C@@H]4NC(=O)c4cc(-c5ccc(F)nc5)cnc4N)cc3)cc21 [Example 97, 6-amino-6′-fluoro-N-{(1S,2S)-2-[(4-{(1R)-1-[4-(2-hydroxyethyl)piperazin-1-yl]-3,3-dimethyl-2,3-dihydro-1H-inden-5-yl}phenyl)methoxy]cyclopentyl}[3,3′-bipyridine]-5-carboxamide] | > 1000 nM | 100 to 1000 nM | 100 to 1000 nM |
| Cn1cc(-c2cnc(N)c(C(=O)N[C@H]3CCC[C@@H]3OCc3ccc(-c4ccc5c(c4)CC[C@@H]5N4CCN(CC(O)CO)CC4)cc3)c2)cn1 (stereo partly drawn) [Example 98, 2-amino-N-{(1S,2S)-2-[(4-{(1S)-1-[4-(2,3-dihydroxypropyl)piperazin-1-yl]-2,3-dihydro-1H-inden-5-yl}phenyl)methoxy]cyclopentyl}-5-(1-methyl-1H-pyrazol-4-yl)pyridine-3-carboxamide] | 10 to 100 nM | < 10 nM | < 10 nM |
| Cn1ccc(-c2cnc(N)c(C(=O)N[C@H]3CCC[C@@H]3OCc3ccc(-c4ccc5c(c4)CC[C@@H]5N4CCN(CC(O)CO)CC4)cc3)c2)cc1=O (stereo partly drawn) [Example 99, 6-amino-N-{(1S,2S)-2-[(4-{(1S)-1-[4-(2,3-dihydroxypropyl)piperazin-1-yl]-2,3-dihydro-1H-inden-5-yl}phenyl)methoxy]cyclopentyl}-1′-methyl-2′-oxo-1′,2′-dihydro[3,4′-bipyridine]-5-carboxamide] | 100 to 1000 nM | < 10 nM | < 10 nM |
| Cn1cc(-c2cnc(N)c(C(=O)N[C@H]3CCC[C@@H]3OCc3ccc(-c4ccc5c(c4)CC[C@H]5N4CCN(CC(O)CO)CC4)cc3)c2)cn1 (stereo partly drawn) [Example 101, 2-amino-N-{(1S,2S)-2-[(4-{(1R)-1-[4-(2,3-dihydroxypropyl)piperazin-1-yl]-2,3-dihydro-1H-inden-5-yl}phenyl)methoxy]cyclopentyl}-5-(1-methyl-1H-pyrazol-4-yl)pyridine-3-carboxamide] | > 1000 nM | 10 to 100 nM | 10 to 100 nM |
| CC1(C)C[C@H](N2CCN(CCO)CC2)c2ccc(-c3ccc(CO[C@H]4CCC[C@@H]4NC(=O)c4cc(-c5ccc(F)nc5)cnc4N)cc3)cc21 [Example 104, 6-amino-6′-fluoro-N-{(1S,2S)-2-[(4-{(1S)-1-[4-(2-hydroxyethyl)piperazin-1-yl]-3,3-dimethyl-2,3-dihydro-1H-inden-5-yl}phenyl)methoxy]cyclopentyl}[3,3′-bipyridine]-5-carboxamide] | < 10 nM | < 10 nM | < 10 nM |
| Cn1cc(-c2cnc(N)c(C(=O)N[C@H]3CCC[C@@H]3OCc3ccc(-c4ccc5c(c4)CC(C)(C)C5N4CCN(CCO)CC4)cc3)c2)cn1 (stereo partly drawn) [Example 105, 2-amino-N-{(1S,2S)-2-[(4-{1-[4-(2-hydroxyethyl)piperazin-1-yl]-2,2-dimethyl-2,3-dihydro-1H-inden-5-yl}phenyl)methoxy]cyclopentyl}-5-(1-methyl-1H-pyrazol-4-yl)pyridine-3-carboxamide] | 100 to 1000 nM | < 10 nM | < 10 nM |
| Nc1ncc(-c2ccc(F)nc2)cc1C(=O)N[C@H]1CCC[C@@H]1OCc1ccc(-c2ccc3c(c2)CCCC3N2CCN(CCO)CC2)cc1 (stereo partly drawn) [Example 106, 6-amino-6′-fluoro-N-{(1S,2S)-2-[(4-{5-[4-(2-hydroxyethyl)piperazin-1-yl]-5,6,7,8-tetrahydronaphthalen-2-yl}phenyl)methoxy]cyclopentyl}[3,3′-bipyridine]-5-carboxamide] | 10 to 100 nM | < 10 nM | < 10 nM |

Other lines, results leading:

| IC50 (human TYRO3 (455-end)) | IC50 (human AXL (473-end)) | IC50 (human MER (528-end)) | Compound |
| --- | --- | --- | --- |
| 10 to 100 nM | < 10 nM | < 10 nM | CN1CCN(C2CC(C)(C)c3cc(-c4ccc(CO[C@H]5CCC[C@@H]5NC(=O)c5cc(-c6ccn(C)c(=O)c6)cnc5N)cc4)ccc32)CC1 (stereo partly drawn) [Example 107, 6-amino-N-[(1S,2S)-2-({4-[3,3-dimethyl-1-(4-methylpiperazin-1-yl)-2,3-dihydro-1H-inden-5-yl]phenyl}methoxy)cyclopentyl]-1′-methyl-2′-oxo-1′,2′-dihydro[3,4′-bipyridine]-5-carboxamide] |
| 10 to 100 nM | < 10 nM | < 10 nM | CN1CCN(C2CC(C)(C)c3cc(-c4ccc(CO[C@H]5CCC[C@@H]5NC(=O)c5cc(-c6cccnc6F)cnc5N)cc4)ccc32)CC1 (stereo partly drawn) [Example 108, 6-amino-N-[(1S,2S)-2-({4-[3,3-dimethyl-1-(4-methylpiperazin-1-yl)-2,3-dihydro-1H-inden-5-yl]phenyl}methoxy)cyclopentyl]-2′-fluoro[3,3′-bipyridine]-5-carboxamide] |
| > 1000 nM | < 10 nM | 10 to 100 nM | CN(C)C1c2ccc(-c3ccc(CO[C@H]4CCC[C@@H]4NC(=O)c4cc(-c5cnn(C)c5)cnc4N)cc3)cc2CC1(C)C (stereo partly drawn) [Example 109, 2-amino-N-[(1S,2S)-2-({4-[1-(dimethylamino)-2,2-dimethyl-2,3-dihydro-1H-inden-5-yl]phenyl}methoxy)cyclopentyl]-5-(1-methyl-1H-pyrazol-4-yl)pyridine-3-carboxamide] |
| 100 to 1000 nM | < 10 nM | < 10 nM | Cc1cn(C2CCN(CCO)CC2)c2ncc(-c3ccc(CO[C@H]4CCC[C@@H]4NC(=O)c4cc(-c5cnn(C)c5)cnc4N)cc3)cc12 [Example 110, 2-amino-N-{(1S,2S)-2-[(4-{1-[1-(2-hydroxyethyl)piperidin-4-yl]-3-methyl-1H-pyrrolo[2,3-b]pyridin-5-yl}phenyl)methoxy]cyclopentyl}-5-(1-methyl-1H-pyrazol-4-yl)pyridine-3-carboxamide] |
| > 1000 nM | 100 to 1000 nM | 10 to 100 nM | Cn1cc(-c2cnc(N)c(C(=O)N[C@H]3CCC[C@@H]3OCc3ccc(-c4ccc5c(cnn5C5CCN(CCO)CC5)c4)cc3)c2)cn1 [Example 111, 2-amino-N-{(1S,2S)-2-[(4-{1-[1-(2-hydroxyethyl)piperidin-4-yl]-1H-indazol-5-yl}phenyl)methoxy]cyclopentyl}-5-(1-methyl-1H-pyrazol-4-yl)pyridine-3-carboxamide] |
| 10 to 100 nM | < 10 nM | < 10 nM | Cn1cc(-c2cnc(N)c(C(=O)N[C@H]3CCC[C@@H]3OCc3ccc(-c4ccc5c(c4)CCCN5C4CCN(CCO)CC4)cc3)c2)cn1 [Example 112, 2-amino-N-{(1S,2S)-2-[(4-{1-[1-(2-hydroxyethyl)piperidin-4-yl]-1,2,3,4-tetrahydroquinolin-6-yl}phenyl)methoxy]cyclopentyl}-5-(1-methyl-1H-pyrazol-4-yl)pyridine-3-carboxamide] |
